Data as given in US20230058189A1, “QUINOLIN-4-ONE AND 4(1H)-CINNOLINONE COMPOUNDS AND METHODS OF USING SAME” (Frequency Therapeutics, Inc., priority 2019, published 2023).
pIC50: −log10 of the molar value.

Assays:
Type in all cases: biochemical
LSD-1 = LSD-1 (Homo sapiens, UniProt O60341); experiment: LSD-1 A-screen (AlphaScreen) demethylase enzymatic assay; conditions: approximate values; for inhibition at 50 µM: read-out: Potency LSD-1 % Inhibition at 50 μM; for pIC50: read-out: Potency LSD-1 IC50
Description: (§1) Enzymatic activities of compounds of the present disclosure can be tested with recombinant human LSD using an in vitro enzymatic assay to determine the ability of the compounds of the present disclosure to inhibit LSD-1 and LSD2. Examples of the assay are provided below.
(§2) All of the enzymatic reactions were conducted in duplicate at room temperature for 60 minutes in a 10 μL mixture containing assay buffer, histone H3 peptide substrate, demthylase enzyme, and the test compound. These 10 μL reactions were carried out in wells of a 384-well Optiplate (PerkinElmer). The dilution of the compounds was first performed in 100% DMSO with the highest concentration at 5 mM Each intermediate compound dilution (in 100% DMSO) was then directly diluted 30× fold into assay buffer for 3.3× concentration (DMSO). […] From this intermediate step, 3 μL of compound was added to 4 μL of demethylase enzyme dilution was incubated for 30 minutes at room temperature. After this incubation, 3 μL of peptide substrate was added. The final DMSO concentration was 1%. After enzymatic reactions, 5 μL of anti-Mouse or anti-Rabbit Acceptor beads (PerkinElmer, diluted 1:500 with 1× detection buffer) and […] (BPS, diluted 1:800 with 1× detection buffer) were added to the reaction mix. After brief shaking, the plate was incubated for 30 minutes. Finally, 10 μL of AlphaScreen™ Streptavidin-conjugated donor beads (Perkin, diluted 1:125 with 1× detection buffer) were added. After 30 minutes, the samples were measured in an AlphaScreen microplate reader (EnSpire Alpha 2390 Multilabel Reader, Perkin Elmer).
(§3) Enzyme activity assays were performed in duplicates at each concentration. The A-screen intensity data were analyzed and compared. In the absence of the compound, the intensity in each data set was defined as 100% (Ce) activity. In the absence of enzyme, the intensity in each data set was defined as 0% (C0) activity. The percent activity in the presence of each compound was calculated according to the following equation: % activity=(C−C0)/(Ce−C0), where C=the intensity in the presence of the compound.
(§4) The value of percent activity versus a series of compound concentrations was then plotted using non-linear regression analysis of Sigmoidal dose-response curve generated with the equation Y=B+(T−B)/1+10((LogEC50−X)×Hill Slope), where Y=percent activity, B=minimum percent activity, T=maximum percent activity, X=logarithm of compound and Hill Slope=slope factor or Hill coefficient. The IC50 value was determined by the concentration causing a half-maximal percent activity.

GSK3α = GSK3α (Homo sapiens, UniProt P49840); experiment: GSK3α in vitro enzymatic assay (Kinase-Glo Max luminescence); conditions: recombinant human GSK3, 10 μM ATP; approximate values; read-out: Potency GSK3alpha
Chain of GSK3α (P49840 whole entry): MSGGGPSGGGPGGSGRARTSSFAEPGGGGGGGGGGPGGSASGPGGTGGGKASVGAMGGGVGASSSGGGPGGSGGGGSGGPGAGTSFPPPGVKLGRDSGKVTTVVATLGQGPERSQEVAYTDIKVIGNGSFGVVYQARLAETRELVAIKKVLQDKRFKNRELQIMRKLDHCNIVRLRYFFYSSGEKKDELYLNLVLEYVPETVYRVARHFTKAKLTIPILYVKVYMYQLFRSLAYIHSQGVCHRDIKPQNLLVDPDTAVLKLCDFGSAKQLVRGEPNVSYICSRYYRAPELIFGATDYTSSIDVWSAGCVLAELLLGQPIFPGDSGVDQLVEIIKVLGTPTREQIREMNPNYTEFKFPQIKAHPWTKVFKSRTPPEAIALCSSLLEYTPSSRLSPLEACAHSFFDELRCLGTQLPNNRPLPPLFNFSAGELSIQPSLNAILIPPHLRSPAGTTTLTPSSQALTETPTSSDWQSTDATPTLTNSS
Description: (§5) Enzymatic activities of compounds of the present disclosure can be tested using recombinant human GSK3 in an in vitro enzymatic assay to determine the ability of the compounds of the present disclosure to inhibit GSK3α and GSK3β.
(§6) The assay was performed using Kinase-Glo® Max luminescence kinase assay kit (Promega). The assay measures kinase activity by quantitating the amount of ATP remaining in solution following a kinase reaction. The luminescent signal from the assay is correlated with the amount of ATP present and is inversely correlated with the amount of kinase activity.
(§7) To perform the assay, compounds were diluted in 10% DMSO and 5 μl of the dilution was added to a 50 μl reaction so that the final concentration of DMSO was 1% in all of reactions. The enzymatic reactions were conducted at 30° C. for 40 minutes. The 50 μl reaction mixture contained 40 mM Tris, pH 7.4, 10 mM MgCl2, 0.1 mg/ml BSA, 2 mM DTT, 0.1 mg/ml GSK tide substrate, 10 uM ATP and GSK3. After the enzymatic reaction, 50 μl of Kinase-Glo Max Luminescence kinase assay solution (Promega) was added to each reaction and plates were incubated for 15 minutes at room temperature. Luminescence signal was measured using a BioTek Synergy 2 microplate reader.
(§8) Kinase activity assays were performed in duplicate at each concentration. The luminescence data were analyzed using the computer software, GraphPad Prism. The difference between luminescence intensities in the absence of Kinase (Lut) and in the presence of Kinase (Luc) was defined as 100% activity (Lut-Luc). Using luminescence signal (Lu) in the presence of the compound, percent activity was calculated as: % activity={(Lut-Lu)/(Lut-Luc)}×100%, where Lu=the luminescence intensity in the presence of the compound (all percent activities below zero were shown zero in the table).
as §4, with “The values” for “The value”, “concentrations were” for “concentrations was”, “The ICs,” for “The IC50”

LSD2 = molecular target: T1, LSD2 (Homo sapiens, UniProt Q8NB78); experiment: LSD2 A-screen (AlphaScreen) demethylase enzymatic assay; conditions: approximate values; for inhibition at 50 µM: 50 μM compound, read-out: Potency LSD-2 % Inhibition at 50 μM
T1 sequence (Q8NB78 1-822): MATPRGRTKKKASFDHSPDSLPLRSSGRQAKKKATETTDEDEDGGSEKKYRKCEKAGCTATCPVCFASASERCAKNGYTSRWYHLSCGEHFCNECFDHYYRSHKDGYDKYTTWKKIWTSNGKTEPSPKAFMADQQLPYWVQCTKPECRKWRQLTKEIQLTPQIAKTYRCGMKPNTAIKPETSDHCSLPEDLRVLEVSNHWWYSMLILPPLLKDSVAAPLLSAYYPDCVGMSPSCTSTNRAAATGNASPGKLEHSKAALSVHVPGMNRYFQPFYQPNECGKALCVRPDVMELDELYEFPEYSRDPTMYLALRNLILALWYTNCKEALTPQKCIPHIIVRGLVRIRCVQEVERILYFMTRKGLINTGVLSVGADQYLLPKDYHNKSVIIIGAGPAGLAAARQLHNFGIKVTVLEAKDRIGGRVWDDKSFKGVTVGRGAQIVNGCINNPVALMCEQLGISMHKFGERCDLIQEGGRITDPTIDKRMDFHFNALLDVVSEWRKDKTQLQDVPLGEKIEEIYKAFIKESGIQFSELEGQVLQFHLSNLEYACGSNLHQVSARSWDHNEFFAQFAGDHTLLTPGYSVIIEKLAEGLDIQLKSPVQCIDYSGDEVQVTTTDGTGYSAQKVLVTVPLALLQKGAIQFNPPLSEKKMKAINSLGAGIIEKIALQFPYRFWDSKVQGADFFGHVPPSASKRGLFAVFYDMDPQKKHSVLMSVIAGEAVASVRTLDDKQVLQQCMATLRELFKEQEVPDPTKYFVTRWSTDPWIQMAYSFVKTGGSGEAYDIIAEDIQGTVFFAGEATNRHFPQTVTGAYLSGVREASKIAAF
Description: as §1, §2, §3, §4

GSK3β = GSK3β (Homo sapiens, UniProt P49841); experiment: GSK3β in vitro enzymatic assay (Kinase-Glo Max luminescence); conditions: recombinant human GSK3, 10 μM ATP; approximate values; read-out: Potency GSK3beta
Chain of GSK3β (P49841 whole entry): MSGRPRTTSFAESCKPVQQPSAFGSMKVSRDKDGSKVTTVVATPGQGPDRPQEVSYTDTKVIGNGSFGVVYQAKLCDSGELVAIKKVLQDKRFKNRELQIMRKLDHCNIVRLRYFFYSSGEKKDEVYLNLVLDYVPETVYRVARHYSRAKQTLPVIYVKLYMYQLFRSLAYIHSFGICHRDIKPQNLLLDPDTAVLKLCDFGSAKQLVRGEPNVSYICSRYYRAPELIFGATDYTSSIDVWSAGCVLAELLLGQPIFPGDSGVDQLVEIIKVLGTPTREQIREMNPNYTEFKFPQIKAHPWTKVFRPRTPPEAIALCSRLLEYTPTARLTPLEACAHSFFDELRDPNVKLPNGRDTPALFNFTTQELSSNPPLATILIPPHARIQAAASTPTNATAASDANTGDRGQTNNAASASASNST
Description: as §5, §6, §7, §8
as §4, with “The values” for “The value”, “concentrations were” for “concentrations was”, “The ICs,” for “The IC50”

inhibition at 50 µM (LSD-1; 50 μM compound)	pIC50 (GSK3α)	inhibition at 50 µM (LSD2)	pIC50 (GSK3β)	pIC50 (LSD-1)	Potency LSD-1 % Inhibition at 50 μM (LSD-1; 50 μM compound, 50 µM)	pIC50 (LSD2; read-out: Potency LSD-2 IC50)	SMILES
36%	7.09	0%	7.26	–	–	–	CCn1cc(C(=O)O)c(=O)c2c(N)c(F)c(NC3CCC3)cc21 [Compound I-12]
–	7.33	45%	7.12	5.80	–	–	CCn1cc(C(=O)O)c(=O)c2c(N)c(F)c(N[C@H]3CC[C@H](N[C@@H]4C[C@H]4c4ccccc4)CC3)cc21 (relative stereo) [Compound I-27]
2%	6.45	2%	6.65	–	–	–	CCn1cc(C(=O)O)c(=O)c2c(N)c(F)c(NC3CC3)cc21 [Compound I-15]
10%	5.44	6%	5.17	–	–	–	CCn1cc(C(=O)O)c(=O)c2cc(F)c(NC3CCCCC3)cc21 [Compound I-1]
5%	< 5.00	3%	< 5.00	–	–	–	CCn1cc(C(=O)O)c(=O)c2c(N)c(F)c(N[C@@H]3CC[C@@H]3c3ccccc3)cc21 (relative stereo) [Compound I-14]
6%	7.16	3%	7.28	–	–	–	CCn1cc(C(=O)O)c(=O)c2c(N)c(F)c(NC3CCCC3)cc21 [Compound I-9]
10%	7.42	5%	7.74	–	–	–	CCn1cc(C(=O)O)c(=O)c2c(N)c(F)c(NC3CCCCC3)cc21 [Compound I-7]
–	6.35	65%	6.16	5.89	–	–	CCn1cc(C(=O)O)c(=O)c2c(N)c(F)c(N[C@H]3CC[C@@H](N[C@@H]4C[C@H]4c4ccccc4)CC3)cc21 (relative stereo) [Compound I-28]
26%	7.14	15%	6.57	–	–	–	CCn1cc(C(=O)O)c(=O)c2c(N)c(F)c(N[C@H]3C[C@@H](c4ccccc4)C3)cc21 [Compound I-61]

More lines, now with the values behind:

SMILES	inhibition at 50 µM (LSD-1; 50 μM compound)	pIC50 (GSK3α)	inhibition at 50 µM (LSD2)	pIC50 (GSK3β)	pIC50 (LSD-1)	Potency LSD-1 % Inhibition at 50 μM (LSD-1; 50 μM compound, 50 µM)	pIC50 (LSD2; read-out: Potency LSD-2 IC50)
CCn1cc(C#N)c(=O)c2c(N)c(F)c(NCCc3ccccc3)cc21 [Compound I-67]	8%	8.70	4%	8.72	–	–	–
CCn1cc(C(=O)O)c(=O)c2c(N)c(F)c(Nc3ccccc3)cc21 [Compound I-16]	32%	6.97	5%	7.17	–	–	–
CCn1cc(C(=O)O)c(=O)c2c(N)cc(NCCc3ccccc3)c(F)c21 [Compound I-65]	88%	< 5.00	38%	< 5.00	–	–	–
CCn1cc(C(=O)O)c(=O)c2c(N)c(F)c(NC3CCc4ccccc43)cc21 (centres unmarked) [Compound I-10]	22%	5.42	6%	5.72	–	–	–
CCn1cc(C(=O)O)c(=O)c2c(N)c(F)c(N[C@@H]3C[C@H]3c3ccccc3)cc21 (single isomer, unassigned) [Compound I-20]	–	6.99	10%	6.47	–	<10% @ 50 μM	–
Nc1c(F)c(NCCN[C@@H]2C[C@H]2c2ccccc2)cc2c1c(=O)c(C(=O)O)cn2C1CC1 (relative stereo) [Compound I-89]	–	6.41	5%	6.51	5.13	–	–
CCn1cc(C(=O)O)c(=O)c2c(N)c(F)c(N[C@H]3C[C@@H]3c3ccccc3)cc21 [Compound I-22]	11%	6.86	2%	6.94	–	–	–
CC(C)n1cc(C(=O)O)c(=O)c2c(N)c(F)c(NCCN[C@@H]3C[C@H]3c3ccccc3)cc21 (relative stereo) [Compound I-88]	–	7.71	14%	7.08	5.59	–	–
CCn1cc(C(=O)O)c(=O)c2c(N)c(F)c(NCCN[C@@H]3C[C@H]3c3ccccc3)cc21 (relative stereo) [Compound I-29]	–	6.92	54%	6.52	5.16	–	–
CCn1cc(C(=O)O)c(=O)c2c(N)c(F)c(Nc3ccc([C@@H]4C[C@H]4N)cc3)cc21 (relative stereo) [Compound I-62]	–	6.35	–	6.30	< 4.00	–	4.31
CCn1cc(C(=O)O)c(=O)c2c(N)cc(NCCCc3ccccc3)cc21 [Compound I-57]	83%	6.12	42%	5.75	–	–	–
CCn1cc(C(=O)O)c(=O)c2c(N)cc(N[C@@H]3C[C@H]3c3ccccc3)cc21 (relative stereo) [Compound I-59]	11%	5.33	24%	5.35	–	–	–
CCn1cc(C(=O)O)c(=O)c2c(N)c(F)c(NCc3ccccc3)cc21 [Compound I-17]	2%	6.18	19%	5.69	–	–	–
CCn1cc(C(=O)O)c(=O)c2c(N)c(F)c(NCCCc3ccccc3)cc21 [Compound I-19]	27%	7.72	17%	7.54	–	–	–
